Tested on: mouse immortalized TT-D6 Scx-luciferase (ScxL) cell line; transcriptional activation of Scleraxis (Scx) gene
Assay: SCX-LUC in vitro assay (scleraxis promoter luciferase reporter)
Type: cell-based
Conditions: Mus musculus, 96 h; Examples table; TT-D6 Scx-luciferase cells, 1 ng/ml TGFβ1, four days; read-out: Scx-Luc (EC50 μM)

**Q.** Which EC50 does the source give for `Cc1cc(S(=O)(=O)N[C@H]2C[C@H](O)C2)ccc1-c1ccc2[nH]nc(N)c2n1` [Example 77, 4-(3-amino-1H-pyrazolo[4,3-b]pyridin-5-yl)-N-((1r,3r)-3-hydroxycyclobutyl)-3-methylbenzenesulfonamide] here?
**A.** 0.777 µM

**Q.** For `Nc1n[nH]c2ccc(-c3ccc(NS(=O)(=O)c4ccc(OC(F)(F)F)cc4)cc3Cl)nc12` [Example 88, N-(4-(3-amino-1H-pyrazolo[4,3-b]pyridin-5-yl)-3-chlorophenyl)-4-(trifluoromethoxy)benzenesulfonamide], which EC50 is on record?
**A.** 2.43 µM

**Q.** `N#Cc1cccc(S(=O)(=O)Nc2ccc(-c3ccc4[nH]nc(N)c4n3)c(Cl)c2)c1` [Example 22, N-(4-(3-amino-1H-pyrazolo[4,3-b]pyridin-5-yl)-3-chlorophenyl)-3-cyanobenzenesulfonamide] was tested. Which EC50 did it give?
**A.** 0.035 µM

**Q.** With `Cc1cc(NS(=O)(=O)c2cccc(F)c2)ccc1-c1ccc2[nH]nc(N)c2n1` [Example 33, N-(4-(3-amino-1H-pyrazolo[4,3-b]pyridin-5-yl)-3-methylphenyl)-3-fluorobenzenesulfonamide] as the compound, how does the EC50 read?
**A.** 1.02 µM

**Q.** Which EC50 does the source give for `Cc1ccc(O)c(S(=O)(=O)Nc2ccc(-c3ccc4[nH]nc(N)c4n3)c(Cl)c2)c1` [Example 32, N-(4-(3-amino-1H-pyrazolo[4,3-b]pyridin-5-yl)-3-chlorophenyl)-2-hydroxy-5-methylbenzenesulfonamide] here?
**A.** 1.94 µM

**Q.** Which EC50 does the source give for `Nc1n[nH]c2ccc(-c3ccc(S(=O)(=O)NCc4ccccc4)cc3Cl)nc12` [Example 73, 4-(3-amino-1H-pyrazolo[4,3-b]pyridin-5-yl)-N-benzyl-3-chlorobenzenesulfonamide] here?
**A.** 3.53 µM

**Q.** `Nc1n[nH]c2ccc(-c3ccc(S(=O)(=O)N4CC(Oc5ccccc5)C4)cc3Cl)nc12` [Example 87, 5-(2-chloro-4-((3-phenoxyazetidin-1-yl)sulfonyl)phenyl)-1H-pyrazolo[4,3-b]pyridin-3-amine] was tested. Which EC50 did it give?
**A.** 0.83 µM

**Q.** For `Nc1n[nH]c2ccc(-c3ccc(S(=O)(=O)N[C@@H]4CCC[C@H]4O)cc3Cl)nc12` [Example 29, 4-(3-amino-1H-pyrazolo[4,3-b]pyridin-5-yl)-3-chloro-N-((1R,2R)-2-hydroxycyclopentyl)benzenesulfonamide], which EC50 is on record?
**A.** 1.91 µM

**Q.** Which EC50 does the source give for `Nc1n[nH]c2ccc(-c3ccc(S(=O)(=O)Nc4ccccc4)cc3F)nc12` [Example 49, 4-(3-amino-1H-pyrazolo[4,3-b]pyridin-5-yl)-3-fluoro-N-phenylbenzenesulfonamide] here?
**A.** 0.87 µM

**Q.** How did the EC50 turn out when `Nc1n[nH]c2ccc(-c3ccc(S(=O)(=O)Nc4cccc(Cl)c4Cl)cc3Cl)nc12` [Example 56, 4-(3-amino-1H-pyrazolo[4,3-b]pyridin-5-yl)-3-chloro-N-(2,3-dichlorophenyl)benzenesulfonamide] was run?
**A.** 1.64 µM

**Q.** Which EC50 does the source give for `Cc1cc(S(=O)(=O)N[C@H]2CC[C@](C)(O)CC2)ccc1-c1ccc2[nH]nc(N)c2n1` [Example 80, 4-(3-amino-1H-pyrazolo[4,3-b]pyridin-5-yl)-N-((1r,4r)-4-hydroxy-4-methylcyclohexyl)-3-methylbenzenesulfonamide] here?
**A.** 0.225 µM

**Q.** For `Nc1n[nH]c2ccc(-c3ccc(S(=O)(=O)N[C@@H]4CC[C@H](O)C4)cc3Cl)nc12` [Example 23, 4-(3-amino-1H-pyrazolo[4,3-b]pyridin-5-yl)-3-chloro-N-((1R,3S)-3-hydroxycyclopentyl)benzenesulfonamide], which EC50 is on record?
**A.** 2.28 µM

**Q.** With `Nc1n[nH]c2ccc(-c3ccc(NS(=O)(=O)c4cccc(Cl)c4)cc3Cl)nc12` [Example 28, N-(4-(3-amino-1H-pyrazolo[4,3-b]pyridin-5-yl)-3-chlorophenyl)-3-chlorobenzenesulfonamide] as the compound, how does the EC50 read?
**A.** 2.5 µM

**Q.** `Nc1n[nH]c2ccc(-c3ccc(S(=O)(=O)Nc4cccc(F)c4F)cc3Cl)nc12` [Example 81, 4-(3-amino-1H-pyrazolo[4,3-b]pyridin-5-yl)-3-chloro-N-(2,3-difluorophenyl)benzenesulfonamide] was tested. Which EC50 did it give?
**A.** 0.203 µM

**Q.** With `Nc1n[nH]c2ccc(-c3ccc(S(=O)(=O)NC4CCCC(O)C4)cc3Cl)nc12` (stereo not shown) [Example 44, 4-(3-amino-1H-pyrazolo[4,3-b]pyridin-5-yl)-3-chloro-N-(3-hydroxycyclohexyl)benzenesulfonamide] as the compound, how does the EC50 read?
**A.** 4.12 µM

**Q.** For `Cc1cc(S(=O)(=O)N[C@H]2CC[C@@](O)(C(F)(F)F)CC2)ccc1-c1ccc2[nH]nc(N)c2n1` [Example 68, 4-(3-amino-1H-pyrazolo[4,3-b]pyridin-5-yl)-N-((1r,4r)-4-hydroxy-4-(trifluoromethyl)cyclohexyl)-3-methylbenzenesulfonamide], which EC50 is on record?
**A.** 0.354 µM

**Q.** For `Cc1cc(S(=O)(=O)N2CC(F)(F)CC2C(N)=O)ccc1-c1ccc2[nH]nc(N)c2n1` (stereo not shown) [Example 34, 1-((4-(3-amino-1H-pyrazolo[4,3-b]pyridin-5-yl)-3-methylphenyl)sulfonyl)-4,4-difluoropyrrolidine-2-carboxamide], which EC50 is on record?
**A.** 5.02 µM

**Q.** Which EC50 does the source give for `Cc1cc(S(=O)(=O)N2CCC[C@H]2CO)ccc1-c1ccc2[nH]nc(N)c2n1` [Example 70, (S)-(1-((4-(3-amino-1H-pyrazolo[4,3-b]pyridin-5-yl)-3-methylphenyl)sulfonyl)pyrrolidin-2-yl)methanol] here?
**A.** 0.762 µM

**Q.** `Nc1n[nH]c2ccc(-c3ccc(NS(=O)(=O)c4ccc(Cl)c(F)c4)cc3Cl)nc12` [Example 13, N-(4-(3-amino-1H-pyrazolo[4,3-b]pyridin-5-yl)-3-chlorophenyl)-4-chloro-3-fluorobenzenesulfonamide] was tested. Which EC50 did it give?
**A.** 1.34 µM

**Q.** With `Cc1cc(NS(=O)(=O)c2cccc(Cl)c2)ccc1-c1ccc2[nH]nc(N)c2n1` [Example 42, N-(4-(3-amino-1H-pyrazolo[4,3-b]pyridin-5-yl)-3-methylphenyl)-3-chlorobenzenesulfonamide] as the compound, how does the EC50 read?
**A.** 2 µM

**Q.** Which EC50 does the source give for `Nc1n[nH]c2ccc(-c3ccc(S(=O)(=O)NC4CC(F)(F)C4)cc3Cl)nc12` [Example 4, 4-(3-amino-1H-pyrazolo[4,3-b]pyridin-5-yl)-3-chloro-N-(3,3-difluorocyclobutyl)benzenesulfonamide] here?
**A.** 0.444 µM

**Q.** Which EC50 does the source give for `Cc1ccc(S(=O)(=O)Nc2ccc(-c3ccc4[nH]nc(N)c4n3)c(Cl)c2)cc1` [Example 25, N-(4-(3-amino-1H-pyrazolo[4,3-b]pyridin-5-yl)-3-chlorophenyl)-4-methylbenzenesulfonamide] here?
**A.** 0.611 µM

**Q.** `Cc1cc(S(=O)(=O)N[C@H]2CC[C@@H](O)CC2)ccc1-c1ccc2[nH]nc(N)c2n1` [Example 69, 4-(3-amino-1H-pyrazolo[4,3-b]pyridin-5-yl)-N-((1s,4s)-4-hydroxycyclohexyl)-3-methylbenzenesulfonamide] was tested. Which EC50 did it give?
**A.** 0.912 µM

**Q.** Which EC50 does the source give for `CC(C)(C)NS(=O)(=O)c1ccc(-c2ccc3[nH]nc(N)c3n2)c(F)c1` [Example 75, 4-(3-amino-1H-pyrazolo[4,3-b]pyridin-5-yl)-N-tert-butyl-3-fluorobenzenesulfonamide] here?
**A.** 1.52 µM

**Q.** With `Nc1n[nH]c2ccc(-c3ccc(NS(=O)(=O)c4ccc5c(c4)NCCO5)cc3Cl)nc12` [Example 53, N-(4-(3-amino-1H-pyrazolo[4,3-b]pyridin-5-yl)-3-chlorophenyl)-3,4-dihydro-2H-benzo[b][1,4]oxazine-6-sulfonamide] as the compound, how does the EC50 read?
**A.** 2.74 µM

**Q.** For `Nc1n[nH]c2ccc(-c3ccc(NS(=O)(=O)c4ccc(F)cc4)cc3Cl)nc12` [Example 6, N-(4-(3-amino-1H-pyrazolo[4,3-b]pyridin-5-yl)-3-chlorophenyl)-4-fluorobenzenesulfonamide], which EC50 is on record?
**A.** 0.58 µM

**Q.** Which EC50 does the source give for `CC1CCC(NS(=O)(=O)c2ccc(-c3ccc4[nH]nc(N)c4n3)c(Cl)c2)CC1` (stereo not shown) [Example 36, 4-(3-amino-1H-pyrazolo[4,3-b]pyridin-5-yl)-3-chloro-N-(4-methylcyclohexyl)benzenesulfonamide] here?
**A.** 0.414 µM

**Q.** `Nc1n[nH]c2ccc(-c3ccc(S(=O)(=O)N[C@H]4CC[C@H](O)CC4)cc3Cl)nc12` [Example 45, 4-(3-amino-1H-pyrazolo[4,3-b]pyridin-5-yl)-3-chloro-N-((1r,4r)-4-hydroxycyclohexyl)benzenesulfonamide] was tested. Which EC50 did it give?
**A.** 4.73 µM

**Q.** How did the EC50 turn out when `Cc1cc(S(=O)(=O)N[C@@H]2CCC[C@@H]2O)ccc1-c1ccc2[nH]nc(N)c2n1` [Example 20, 4-(3-amino-1H-pyrazolo[4,3-b]pyridin-5-yl)-N-((1R,2S)-2-hydroxycyclopentyl)-3-methylbenzenesulfonamide] was run?
**A.** 0.797 µM

**Q.** With `Nc1n[nH]c2ccc(-c3ccc(S(=O)(=O)N[C@H]4CCC[C@H]4O)cc3Cl)nc12` [Example 35, 4-(3-amino-1H-pyrazolo[4,3-b]pyridin-5-yl)-3-chloro-N-((1S,2R)-2-hydroxycyclopentyl)benzenesulfonamide] as the compound, how does the EC50 read?
**A.** 2.73 µM

**Q.** How did the EC50 turn out when `Nc1n[nH]c2ccc(-c3ccc(S(=O)(=O)Nc4cccc(F)c4)cc3Cl)nc12` [Example 40] was run?
**A.** 0.416 µM

**Q.** `COc1ccc(S(=O)(=O)Nc2ccc(-c3ccc4[nH]nc(N)c4n3)c(Cl)c2)cc1NC(C)=O` [Example 61, N-(5-(N-(4-(3-amino-1H-pyrazolo[4,3-b]pyridin-5-yl)-3-chlorophenyl)sulfamoyl)-2-methoxyphenyl)acetamide] was tested. Which EC50 did it give?
**A.** 1.54 µM

**Q.** For `Nc1n[nH]c2ccc(-c3ccc(S(=O)(=O)N4CC[C@H](O)C4)cc3Cl)nc12` [Example 71, (S)-1-((4-(3-amino-1H-pyrazolo[4,3-b]pyridin-5-yl)-3-chlorophenyl)sulfonyl)pyrrolidin-3-ol], which EC50 is on record?
**A.** 3.53 µM

**Q.** For `Cc1cc(S(=O)(=O)NC2CCCCC2O)ccc1-c1ccc2[nH]nc(N)c2n1` (stereo not shown) [Example 91, 4-(3-amino-1H-pyrazolo[4,3-b]pyridin-5-yl)-N-(2-hydroxycyclohexyl)-3-methylbenzenesulfonamide], which EC50 is on record?
**A.** 1.81 µM

**Q.** With `Cc1cc(S(=O)(=O)N2CCC(CCO)C2)ccc1-c1ccc2[nH]nc(N)c2n1` (stereo not shown) [Example 83, 2-(1-((4-(3-amino-1H-pyrazolo[4,3-b]pyridin-5-yl)-3-methylphenyl)sulfonyl)pyrrolidin-3-yl)ethanol] as the compound, how does the EC50 read?
**A.** 5.33 µM

Same assay, conditions: Mus musculus, 96 h; Table 1; TT-D6 Scx-luciferase cells, 1 ng/ml TGFβ1, four days; read-out: Scx-Luc (EC50 uM)

**Q.** With `C[C@@H](O)c1nc2cnc3[nH]ccc3c2n1[C@@H]1CCCOC1` [reference compound] as the compound, how does the EC50 read?
**A.** 1.34 µM

Same assay, conditions: Mus musculus; further compounds not numbered as examples; read-out: EC50 in the Scx-Luc assay

**Q.** `Nc1n[nH]c2ccc(-c3ccc(S(=O)(=O)N4CCC[C@H]4CO)cc3Cl)nc12` [(S)-(1-((4-(3-amino-1H-pyrazolo[4,3-b]pyridin-5-yl)-3-chlorophenyl)sulfonyl)pyrrolidin-2-yl)methanol] was tested. Which EC50 did it give?
**A.** > 10 µM

From patent US10766894B2, “Aza-indazole compounds for use in tendon and/or ligament injuries” (NOVARTIS AG, priority 2016, dated 2020)
